In patent US20220117913A1, “DEZOCINE DERIVATIVE AND MEDICAL USE THEREOF” (YANGTZE RIVER PHARMACEUTICAL GROUP CO., LTD., priority 2019, published 2022):
pIC50: −log10 of the molar value. Counter-ions that a name gives are not always drawn. Like-named read-outs stand apart in the source and are kept apart here.

What was measured:
[1] = tested on: pain induced by hot plate in mice; assay: pain induced by hot plate in mice; type: in vivo; conditions: Mus musculus; male mice
Excerpt: (§1) A mode of pain induced by heat radiation in mice and a mode of pain induced by hot plate in mice were used to evaluate the analgesic intensity of the test compounds.

[2] = tested on: pain induced by heat radiation in mice; assay: pain induced by heat radiation in mice (light and heat-induced pain); type: in vivo; conditions: for ED50: Mus musculus; for analgesic effect (comparison in words): four mouse models of pain (heat radiation and hot plate), versus dezocine
Excerpt: as §1

[3] = molecular target: κ opioid receptor (Homo sapiens, UniProt P41145); assay: radioisotope ligand competitive binding assay, κ opioid receptor (KOR); conditions: [3H]Diprenorphine 0.3 nM, cell membrane of stably transfected cells; read-out: κ IC50
Excerpt: (§2) Through the radioisotope ligand competitive binding assay, IC50 of the compound was used as an indicator to evaluate the affinity of the compound to κ and δ opioid receptors.
(§3) (1) Reagents • The cell membrane was extracted from stably transfected cells constructed by WuXi AppTec, Shanghai. • 3H-diprenophrine (PerkinElmer, Cat: NET1121250UC, Lot: 2143599) • 3H-DAMGO (PerkinElmer, Cat: NET902250UC, Lot: 2139100) • 3H-DADLE (PerkinElmer, Cat: NET648250UC, Lot: 2060549) • Tris base (Sigma, Cat: T6066-1KG), prepare 1M stock and adjust pH to 7.4. • 0.5M EDTA (Invitrogen, Cat: 15575-038) • 1M MgCl2 (Sigma, Cat: M1028-100 ml) • PEI (Poly ethyleneimine) (Sigma, Cat: P3143) • Microscint 20 cocktail (PerkinElmer, Cat: 6013329) • Naltrindole (Sigma, Cat; N115) • (±)trans-U-50488 (Sigma, Cat: D8040) • DAMGO (Sigma, Cat: E7384)
(§4) (1) 1 μL of the test compounds, negative control (i.e., DMSO) and positive control (i.e., non-specific binding well compound), after being prepared, were respectively transferred to a 96-well plate;
(§5) (2) 99 μL of the prepared opioid receptor membrane protein was added to each well of the 96-well plate containing 1 μL of the compound;
(§6) (3) 100 μL of 2× corresponding radioisotope ligand was added to each well;
(§7) (4) The plate was placed on a shake and incubated at room temperature for 1 hour;
(§8) (5) Each well of the GF/C plate was soaked with 50 μL of 0.3% PEI for at least half an hour in advance;
(§9) (6) After the incubation was finished, the GF/C plate was washed with plate washing buffer once by using Harvest. Then, the cell membranes in the 96-well plate were collected onto the GF/C plate using Harvest, and the GF/C plate was washed four times with the plate washing buffer, each time about 250 μL;
(§10) (7) The GF/C plate was placed in an oven at 50° C. for 1 hour;
(§11) (8) The bottom of the GF/C plate was sealed with a plate sealing film, 50 μL of Microscint-20 scintillation fluid was added to each well, and then the plate was sealed with a transparent sealing film for microplate;
(§12) (9) The radioactive signal value CPM was read using MicroBeta2;
(§13) (10) The data was analyzed with Prism 5. The percentage inhibition rate was calculated with the calculation formula: % Inh=(1-Background subtracted Assay value/Background subtracted HC value)*100.

[4] = pharmacokinetic investigation of intravenous administration in mice; type: in vivo; conditions: mouse; male mice, intravenous injection, plasma
Procedure: Male mice were injected intravenously with the compound of the present disclosure, and the concentration of the unchanged compound in plasma and the concentration of the metabolite of dezocine hydrochloride were measured after the administration.

[5] = molecular target: μ opioid receptor (Homo sapiens, UniProt P35372); assay: radioisotope ligand competitive binding assay, μ opioid receptor (MOR); conditions: [3H]DAMGO 0.5 nM, cell membrane of stably transfected cells; read-out: μ IC50
[6] = molecular target: δ opioid receptor (Homo sapiens, UniProt P41143); assay: radioisotope ligand competitive binding assay, δ opioid receptor (DOR); conditions: [3H]-DADLE 0.5 nM, cell membrane of stably transfected cells; read-out: δ IC50
Excerpt: as §2, §3, §4, §5, §6, §7, §8, §9, §10, §11, §12, §13

[7] = female mice, read-out: Light and heat-induced pain ED50 Female
[8] = male mice, read-out: Light and heat-induced pain ED50 Male

| Structure (SMILES) | ED50 [1] | ED50 [2, 7] | ED50 [2, 8] | Light and heat-induced pain ED95 Female ([2]; female mice) | analgesic effect (comparison in words) [2] | Light and heat-induced pain ED95 Male ([2]; male mice) | pIC50 [3] | half-life [4] | pIC50 [5] | pIC50 [6] |
| --- | --- | --- | --- | --- | --- | --- | --- | --- | --- | --- |
| C[C@@]12CCCCC[C@@H](Cc3ccc(O)cc31)[C@@H]2NCc1ccccc1 [Hydrochloride of compound 26] | 0.045 mg/kg | 0.025 mg/kg | 0.017 mg/kg | 0.043 mg/kg | strongest analgesic effect | 0.021 mg/kg | > 8.00 | 1.35 h | > 8.00 | > 8.00 |
| CCCCCN[C@H]1[C@H]2CCCCC[C@]1(C)c1cc(O)ccc1C2 [Hydrochloride of compound 22] | 0.3 mg/kg | 0.18 mg/kg | 0.13 mg/kg | 0.26 mg/kg | stronger than dezocine | 0.26 mg/kg | 7.00 to 8.00 | 1.24 h | > 8.00 | 7.00 to 8.00 |
| CCCCN[C@H]1[C@H]2CCCCC[C@]1(C)c1cc(O)ccc1C2 [Hydrochloride of compound 21] | 0.15 mg/kg | 0.068 mg/kg | 0.12 mg/kg | 0.083 mg/kg |  | 0.18 mg/kg | 7.00 to 8.00 | 1.27 h | > 8.00 | 7.00 to 8.00 |
